# Experimental data: patent US10167262B2, “Herbicidal substituted 3-arylpyrazoles” (FMC CORPORATION, priority 2014, dated 2019)
# How the values were obtained:
# Assay in all cases: Test E pre-/postemergence greenhouse test, plant response rating 0-100
# Assay type in all cases: in vivo
# Conditions in all cases: Postemergence, scale 0 to 100
# [1] = tested on: Brazilian crabgrass (Digitaria horizontalis)
# How it was run: (§1)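 Seeds sown in silt loam were treated preemergence, and seedlings in peat-based potting medium were treated postemergence at the 1- to 4-leaf stage (2-18 cm tall). Test chemicals were formulated in a non-phytotoxic solvent mixture with surfactant. After 14-21 days in the greenhouse, injury was rated visually against untreated controls (0 = no effect, 100 = complete control).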
# [2] = tested on: Italian ryegrass (Lolium multiflorum)
# How it was run: as §1
# [3] = tested on: barnyardgrass (Echinochloa crus-galli)
# How it was run: as §1
# corn (Zea mays) = tested on: corn (Zea mays)
# How it was run: as §1
# [4] = tested on: dayflower (Virginia (VA) dayflower, Commelina virginica)
# How it was run: as §1
# [5] = tested on: fall panicum (Panicum dichotomiflorum)
# How it was run: as §1
# [6] = tested on: field bindweed (Convolvulus arvensis)
# How it was run: as §1
# [7] = tested on: hairy beggarticks (Bidens pilosa)
# How it was run: as §1
# [8] = tested on: sandbur (southern sandbur, Cenchrus echinatus)
# How it was run: as §1
# soybean (Glycine max) = tested on: soybean (Glycine max)
# How it was run: as §1
# [9] = tested on: waterhemp (common waterhemp, Amaranthus rudis)
# How it was run: as §1
# [10] = tested on: wild poinsettia (Euphorbia heterophylla)
# How it was run: as §1
smiles,measurement,setting,value
Fc1cccc(NN=C(c2ccccc2)c2c[nH]nc2-c2cc(Cl)cc(Cl)c2)c1 [Compound 58],"Plant response rating, Crabgrass, Brazil",[1]; 31 g ai/ha,0
same,"Plant response rating, Crabgrass, Brazil",[1]; 62 g ai/ha,0
same,"Plant response rating, Crabgrass, Brazil",[1]; 125 g ai/ha,0
same,"Plant response rating, Crabgrass, Brazil",[1]; 250 g ai/ha,0
same,"Plant response rating, Crabgrass, Brazil",[1]; 500 g ai/ha,10
same,"Plant response rating, Ryegrass, Italian",[2]; 31 g ai/ha,0
same,"Plant response rating, Ryegrass, Italian",[2]; 62 g ai/ha,0
same,"Plant response rating, Ryegrass, Italian",[2]; 125 g ai/ha,0
same,"Plant response rating, Ryegrass, Italian",[2]; 250 g ai/ha,0
same,"Plant response rating, Ryegrass, Italian",[2]; 500 g ai/ha,0
same,"Plant response rating, Barnyardgrass",[3]; 31 g ai/ha,0
same,"Plant response rating, Barnyardgrass",[3]; 62 g ai/ha,0
same,"Plant response rating, Barnyardgrass",[3]; 125 g ai/ha,0
same,"Plant response rating, Barnyardgrass",[3]; 250 g ai/ha,0
same,"Plant response rating, Barnyardgrass",[3]; 500 g ai/ha,0
same,"Plant response rating, Corn",corn (Zea mays); 31 g ai/ha,0
same,"Plant response rating, Corn",corn (Zea mays); 62 g ai/ha,0
same,"Plant response rating, Corn",corn (Zea mays); 125 g ai/ha,0
same,"Plant response rating, Corn",corn (Zea mays); 250 g ai/ha,0
same,"Plant response rating, Corn",corn (Zea mays); 500 g ai/ha,0
same,"Plant response rating, Dayflower, VA",[4]; 31 g ai/ha,0
same,"Plant response rating, Dayflower, VA",[4]; 62 g ai/ha,0
same,"Plant response rating, Dayflower, VA",[4]; 125 g ai/ha,0
same,"Plant response rating, Dayflower, VA",[4]; 250 g ai/ha,0
same,"Plant response rating, Dayflower, VA",[4]; 500 g ai/ha,0
same,"Plant response rating, Panicum, Fall",[5]; 31 g ai/ha,0
same,"Plant response rating, Panicum, Fall",[5]; 250 g ai/ha,0
same,"Plant response rating, Field Bindweed",[6]; 31 g ai/ha,0
same,"Plant response rating, Field Bindweed",[6]; 62 g ai/ha,0
same,"Plant response rating, Field Bindweed",[6]; 125 g ai/ha,0
same,"Plant response rating, Field Bindweed",[6]; 250 g ai/ha,0
same,"Plant response rating, Field Bindweed",[6]; 500 g ai/ha,10
same,"Plant response rating, Beggarticks",[7]; 31 g ai/ha,70
same,"Plant response rating, Beggarticks",[7]; 62 g ai/ha,80
same,"Plant response rating, Beggarticks",[7]; 125 g ai/ha,80
same,"Plant response rating, Beggarticks",[7]; 250 g ai/ha,95
same,"Plant response rating, Beggarticks",[7]; 500 g ai/ha,100
same,"Plant response rating, Sandbur",[8]; 31 g ai/ha,0
same,"Plant response rating, Sandbur",[8]; 62 g ai/ha,0
same,"Plant response rating, Sandbur",[8]; 125 g ai/ha,0
same,"Plant response rating, Sandbur",[8]; 250 g ai/ha,0
same,"Plant response rating, Sandbur",[8]; 500 g ai/ha,0
same,"Plant response rating, Soybean",soybean (Glycine max); 31 g ai/ha,0
same,"Plant response rating, Soybean",soybean (Glycine max); 62 g ai/ha,0
same,"Plant response rating, Soybean",soybean (Glycine max); 125 g ai/ha,0
same,"Plant response rating, Soybean",soybean (Glycine max); 250 g ai/ha,0
same,"Plant response rating, Soybean",soybean (Glycine max); 500 g ai/ha,0
same,"Plant response rating, Waterhemp",[9]; 31 g ai/ha,80
same,"Plant response rating, Waterhemp",[9]; 62 g ai/ha,90
same,"Plant response rating, Waterhemp",[9]; 125 g ai/ha,95
same,"Plant response rating, Waterhemp",[9]; 250 g ai/ha,100
same,"Plant response rating, Waterhemp",[9]; 500 g ai/ha,100
same,"Plant response rating, Poinsettia, Wild",[10]; 31 g ai/ha,0
same,"Plant response rating, Poinsettia, Wild",[10]; 62 g ai/ha,0
same,"Plant response rating, Poinsettia, Wild",[10]; 125 g ai/ha,0
same,"Plant response rating, Poinsettia, Wild",[10]; 250 g ai/ha,0
same,"Plant response rating, Poinsettia, Wild",[10]; 500 g ai/ha,0
